In ChEMBL document CHEMBL4507285, “Data for DCP probe MRL-SYKi” (2021):

Tests used:
[1] = test system: Tyrosine-protein kinase ABL1 (Homo sapiens), P00519 [H396P]; conditions: Compound concentration 100.0 nM
[2] = test system: Tyrosine-protein kinase ABL1 (Homo sapiens), P00519 [M351T]; conditions: Compound concentration 100.0 nM
[3] = target: NUAK family SNF1-like kinase 1 (Homo sapiens) (UniProt O60285); conditions: Compound concentration 100.0 nM
[4] = target: Mitogen-activated protein kinase kinase kinase 5 (Homo sapiens) (UniProt Q99683); conditions: Compound concentration 100.0 nM
[5] = target: Calcium/calmodulin-dependent protein kinase type 1 (Homo sapiens) (UniProt Q14012); conditions: Compound concentration 100.0 nM
[6] = target: Calcium/calmodulin-dependent protein kinase type 1D (Homo sapiens) (UniProt Q8IU85); conditions: Compound concentration 100.0 nM
[7] = target: Calcium/calmodulin-dependent protein kinase type II subunit gamma (Homo sapiens) (UniProt Q13555); conditions: Compound concentration 100.0 nM
[8] = target: Calcium/calmodulin-dependent protein kinase type IV (Homo sapiens) (UniProt Q16566); conditions: Compound concentration 100.0 nM
[9] = target: Cyclin-dependent kinase 4 (Homo sapiens) (UniProt P11802); conditions: Compound concentration 100.0 nM
[10] = target: Cyclin-dependent kinase-like 5 (Homo sapiens) (UniProt O76039); conditions: Compound concentration 100.0 nM
[11] = target: Citron Rho-interacting kinase (Homo sapiens) (UniProt O14578); conditions: Compound concentration 100.0 nM
[12] = target: Casein kinase I isoform gamma-2 (Homo sapiens) (UniProt P78368); conditions: Compound concentration 100.0 nM
[13] = target: Death-associated protein kinase 1 (Homo sapiens) (UniProt P53355); conditions: Compound concentration 100.0 nM
[14] = target: Mitogen-activated protein kinase kinase kinase 12 (Homo sapiens) (UniProt Q12852); conditions: Compound concentration 100.0 nM
[15] = target: Myotonin-protein kinase (Homo sapiens) (UniProt Q09013); conditions: Compound concentration 100.0 nM
[16] = test system: Epidermal growth factor receptor (Homo sapiens), P00533 [G719C]; conditions: Compound concentration 100.0 nM
[17] = target: Receptor tyrosine-protein kinase erbB-2 (Homo sapiens) (UniProt P04626); conditions: Compound concentration 100.0 nM
[18] = test system: Receptor-type tyrosine-protein kinase FLT3 (Homo sapiens), P36888 [D835Y]; conditions: Compound concentration 100.0 nM
[19] = test system: Receptor-type tyrosine-protein kinase FLT3 (Homo sapiens), P36888 [R834Q]; conditions: Compound concentration 100.0 nM
[20] = target: Mast/stem cell growth factor receptor Kit (Homo sapiens) (UniProt P10721); conditions: Compound concentration 100.0 nM
[21] = test system: Leucine-rich repeat serine/threonine-protein kinase 2 (Homo sapiens), Q5S007 [G2019S]; conditions: Compound concentration 100.0 nM
[22] = target: Tyrosine-protein kinase Lyn (Homo sapiens) (UniProt P07948); conditions: Compound concentration 100.0 nM
[23] = target: Mitogen-activated protein kinase kinase kinase 1 (Homo sapiens) (UniProt Q13233); conditions: Compound concentration 100.0 nM
[24] = target: Mitogen-activated protein kinase kinase kinase kinase 3 (Homo sapiens) (UniProt Q8IVH8); conditions: Compound concentration 100.0 nM
[25] = target: Serine/threonine-protein kinase MARK1 (Homo sapiens) (UniProt Q9P0L2); conditions: Compound concentration 100.0 nM
[26] = target: Serine/threonine-protein kinase MARK2 (Homo sapiens) (UniProt Q7KZI7); conditions: Compound concentration 100.0 nM
[27] = target: Tyrosine-protein kinase Mer (Homo sapiens) (UniProt Q12866); conditions: Compound concentration 100.0 nM
[28] = target: Misshapen-like kinase 1 (Homo sapiens) (UniProt Q8N4C8); conditions: Compound concentration 100.0 nM
[29] = target: Serine/threonine-protein kinase 38-like (Homo sapiens) (UniProt Q9Y2H1); conditions: Compound concentration 100.0 nM
[30] = target: Serine/threonine-protein kinase Nek10 (Homo sapiens) (UniProt Q6ZWH5); conditions: Compound concentration 100.0 nM
[31] = target: Cyclin-dependent kinase 14 (Homo sapiens) (UniProt O94921); conditions: Compound concentration 100.0 nM
[32] = target: Phosphatidylinositol 4-kinase beta (Homo sapiens) (UniProt Q9UBF8); conditions: Compound concentration 100.0 nM
[33] = target: Serine/threonine-protein kinase PknB (Mycobacterium tuberculosis) (UniProt P9WI81); conditions: Compound concentration 100.0 nM
[34] = target: Serine/threonine-protein kinase PLK1 (Homo sapiens) (UniProt P53350); conditions: Compound concentration 100.0 nM
[35] = target: Serine/threonine-protein kinase D2 (Homo sapiens) (UniProt Q9BZL6); conditions: Compound concentration 100.0 nM
[36] = target: Serine/threonine-protein kinase PRP4 homolog (Homo sapiens) (UniProt Q13523); conditions: Compound concentration 100.0 nM
[37] = target: Receptor-interacting serine/threonine-protein kinase 4 (Homo sapiens) (UniProt P57078); conditions: Compound concentration 100.0 nM
[38] = target: SRSF protein kinase 1 (Homo sapiens) (UniProt Q96SB4); conditions: Compound concentration 100.0 nM
[39] = target: Serine/threonine-protein kinase TNNI3K (Homo sapiens) (UniProt Q59H18); conditions: Compound concentration 100.0 nM
[40] = target: 5-hydroxytryptamine receptor 5A (Homo sapiens) (UniProt P47898); conditions: Compound concentration 10.0 uM
[41] = target: D(3) dopamine receptor (Homo sapiens) (UniProt P35462); conditions: Compound concentration 10.0 uM
[42] = target: Alpha-1B adrenergic receptor (Homo sapiens) (UniProt P35368); conditions: Compound concentration 10.0 uM
[43] = target: Beta-1 adrenergic receptor (Homo sapiens) (UniProt P08588); conditions: Compound concentration 10.0 uM
[44] = target: Beta-2 adrenergic receptor (Homo sapiens) (UniProt P07550); conditions: Compound concentration 10.0 uM
[45] = target: Beta-3 adrenergic receptor (Homo sapiens) (UniProt P13945); conditions: Compound concentration 10.0 uM

Beta-2 adrenergic receptor (Homo sapiens), sequence (P07550 whole entry, looked up): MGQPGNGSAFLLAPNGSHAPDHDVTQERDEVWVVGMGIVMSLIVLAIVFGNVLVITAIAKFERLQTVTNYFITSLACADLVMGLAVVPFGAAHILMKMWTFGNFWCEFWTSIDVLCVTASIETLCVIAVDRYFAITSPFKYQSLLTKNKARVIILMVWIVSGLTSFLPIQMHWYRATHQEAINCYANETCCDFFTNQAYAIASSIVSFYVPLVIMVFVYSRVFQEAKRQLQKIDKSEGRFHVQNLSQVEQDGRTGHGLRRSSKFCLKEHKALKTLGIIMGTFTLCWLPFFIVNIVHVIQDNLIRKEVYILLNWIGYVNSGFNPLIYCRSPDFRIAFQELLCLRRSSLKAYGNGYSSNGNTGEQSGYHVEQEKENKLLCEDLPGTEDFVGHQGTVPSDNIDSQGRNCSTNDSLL
Misshapen-like kinase 1 (Homo sapiens), sequence (Q8N4C8 whole entry, looked up): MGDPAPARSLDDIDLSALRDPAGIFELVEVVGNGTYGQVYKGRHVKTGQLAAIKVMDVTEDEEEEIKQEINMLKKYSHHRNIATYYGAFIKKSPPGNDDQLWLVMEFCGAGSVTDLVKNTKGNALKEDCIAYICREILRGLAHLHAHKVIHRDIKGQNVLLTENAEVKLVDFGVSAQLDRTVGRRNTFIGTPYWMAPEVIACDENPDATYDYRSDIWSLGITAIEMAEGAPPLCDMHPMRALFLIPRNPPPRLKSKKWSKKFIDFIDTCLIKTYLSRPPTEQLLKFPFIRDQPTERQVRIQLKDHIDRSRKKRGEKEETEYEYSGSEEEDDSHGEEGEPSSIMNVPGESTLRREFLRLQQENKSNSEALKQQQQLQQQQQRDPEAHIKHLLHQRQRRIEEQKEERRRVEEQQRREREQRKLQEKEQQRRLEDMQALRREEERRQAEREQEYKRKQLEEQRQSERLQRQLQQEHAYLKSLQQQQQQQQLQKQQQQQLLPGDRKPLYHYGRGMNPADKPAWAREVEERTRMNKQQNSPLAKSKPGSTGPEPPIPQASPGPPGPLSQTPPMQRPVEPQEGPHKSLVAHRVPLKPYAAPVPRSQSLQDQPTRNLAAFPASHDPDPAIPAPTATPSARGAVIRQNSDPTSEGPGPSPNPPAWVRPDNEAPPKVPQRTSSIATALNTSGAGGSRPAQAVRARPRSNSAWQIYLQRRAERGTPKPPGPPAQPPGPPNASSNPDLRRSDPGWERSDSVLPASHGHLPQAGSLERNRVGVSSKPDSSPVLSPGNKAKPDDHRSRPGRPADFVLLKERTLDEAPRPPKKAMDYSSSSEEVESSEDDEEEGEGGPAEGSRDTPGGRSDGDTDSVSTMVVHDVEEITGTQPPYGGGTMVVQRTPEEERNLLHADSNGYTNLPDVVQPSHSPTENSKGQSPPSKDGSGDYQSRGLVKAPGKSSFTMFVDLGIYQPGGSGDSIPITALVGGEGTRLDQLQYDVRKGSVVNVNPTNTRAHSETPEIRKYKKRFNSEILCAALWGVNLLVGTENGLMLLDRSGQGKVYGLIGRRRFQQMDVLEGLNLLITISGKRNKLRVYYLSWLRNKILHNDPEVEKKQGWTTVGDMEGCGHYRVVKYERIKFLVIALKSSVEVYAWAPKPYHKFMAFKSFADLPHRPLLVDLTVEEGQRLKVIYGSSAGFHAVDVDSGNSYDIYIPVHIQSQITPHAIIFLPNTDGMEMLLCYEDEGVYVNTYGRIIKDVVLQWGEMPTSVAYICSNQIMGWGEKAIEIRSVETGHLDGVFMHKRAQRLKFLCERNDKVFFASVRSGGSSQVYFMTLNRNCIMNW
Serine/threonine-protein kinase PRP4 homolog (Homo sapiens), sequence (Q13523 whole entry): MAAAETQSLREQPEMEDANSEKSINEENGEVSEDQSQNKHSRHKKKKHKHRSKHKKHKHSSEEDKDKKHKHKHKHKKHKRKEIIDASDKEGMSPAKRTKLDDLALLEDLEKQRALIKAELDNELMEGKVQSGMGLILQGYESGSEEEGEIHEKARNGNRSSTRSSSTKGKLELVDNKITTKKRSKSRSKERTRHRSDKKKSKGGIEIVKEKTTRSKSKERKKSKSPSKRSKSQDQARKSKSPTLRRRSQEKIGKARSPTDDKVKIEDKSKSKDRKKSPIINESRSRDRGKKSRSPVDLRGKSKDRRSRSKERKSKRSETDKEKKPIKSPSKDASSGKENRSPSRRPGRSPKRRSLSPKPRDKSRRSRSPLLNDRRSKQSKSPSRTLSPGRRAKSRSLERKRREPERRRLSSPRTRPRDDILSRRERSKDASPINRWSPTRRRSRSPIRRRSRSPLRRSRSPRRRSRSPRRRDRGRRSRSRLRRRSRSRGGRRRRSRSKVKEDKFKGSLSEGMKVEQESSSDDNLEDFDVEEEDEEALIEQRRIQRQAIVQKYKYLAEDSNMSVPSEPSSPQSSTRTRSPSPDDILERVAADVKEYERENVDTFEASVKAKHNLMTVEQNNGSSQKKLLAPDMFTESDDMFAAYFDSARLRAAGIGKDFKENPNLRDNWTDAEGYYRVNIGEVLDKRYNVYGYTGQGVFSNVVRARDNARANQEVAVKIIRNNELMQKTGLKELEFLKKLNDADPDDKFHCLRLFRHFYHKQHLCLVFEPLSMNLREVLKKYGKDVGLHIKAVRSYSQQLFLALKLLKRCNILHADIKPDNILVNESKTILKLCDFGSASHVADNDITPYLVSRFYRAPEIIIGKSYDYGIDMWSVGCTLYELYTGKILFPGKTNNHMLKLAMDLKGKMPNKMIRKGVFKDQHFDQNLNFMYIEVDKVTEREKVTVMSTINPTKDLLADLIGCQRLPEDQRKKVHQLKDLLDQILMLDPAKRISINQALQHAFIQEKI
Mitogen-activated protein kinase kinase kinase 12 (Homo sapiens), sequence (Q12852 whole entry): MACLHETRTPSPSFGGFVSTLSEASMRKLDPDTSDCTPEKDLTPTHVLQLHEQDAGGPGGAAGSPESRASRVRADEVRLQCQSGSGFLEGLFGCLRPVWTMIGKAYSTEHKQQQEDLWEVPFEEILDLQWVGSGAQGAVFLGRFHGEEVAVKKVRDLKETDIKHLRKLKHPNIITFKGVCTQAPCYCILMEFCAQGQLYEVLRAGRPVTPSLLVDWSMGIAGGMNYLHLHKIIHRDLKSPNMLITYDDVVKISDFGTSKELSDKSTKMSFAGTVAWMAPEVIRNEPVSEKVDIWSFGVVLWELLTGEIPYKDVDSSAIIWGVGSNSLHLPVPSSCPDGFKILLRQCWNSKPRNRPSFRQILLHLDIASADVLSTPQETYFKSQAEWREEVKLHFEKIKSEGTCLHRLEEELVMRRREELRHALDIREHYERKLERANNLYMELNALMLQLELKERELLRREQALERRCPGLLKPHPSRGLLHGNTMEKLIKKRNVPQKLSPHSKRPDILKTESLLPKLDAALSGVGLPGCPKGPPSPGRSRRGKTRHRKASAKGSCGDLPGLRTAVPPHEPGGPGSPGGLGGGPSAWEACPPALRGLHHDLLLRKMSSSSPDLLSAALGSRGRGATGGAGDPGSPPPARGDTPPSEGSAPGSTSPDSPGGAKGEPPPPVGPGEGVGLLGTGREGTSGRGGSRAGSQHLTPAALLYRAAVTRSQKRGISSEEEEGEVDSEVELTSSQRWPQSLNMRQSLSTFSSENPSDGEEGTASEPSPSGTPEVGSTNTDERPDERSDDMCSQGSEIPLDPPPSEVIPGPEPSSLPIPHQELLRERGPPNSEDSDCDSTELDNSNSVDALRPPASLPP
Serine/threonine-protein kinase MARK2 (Homo sapiens), sequence (Q7KZI7 whole entry): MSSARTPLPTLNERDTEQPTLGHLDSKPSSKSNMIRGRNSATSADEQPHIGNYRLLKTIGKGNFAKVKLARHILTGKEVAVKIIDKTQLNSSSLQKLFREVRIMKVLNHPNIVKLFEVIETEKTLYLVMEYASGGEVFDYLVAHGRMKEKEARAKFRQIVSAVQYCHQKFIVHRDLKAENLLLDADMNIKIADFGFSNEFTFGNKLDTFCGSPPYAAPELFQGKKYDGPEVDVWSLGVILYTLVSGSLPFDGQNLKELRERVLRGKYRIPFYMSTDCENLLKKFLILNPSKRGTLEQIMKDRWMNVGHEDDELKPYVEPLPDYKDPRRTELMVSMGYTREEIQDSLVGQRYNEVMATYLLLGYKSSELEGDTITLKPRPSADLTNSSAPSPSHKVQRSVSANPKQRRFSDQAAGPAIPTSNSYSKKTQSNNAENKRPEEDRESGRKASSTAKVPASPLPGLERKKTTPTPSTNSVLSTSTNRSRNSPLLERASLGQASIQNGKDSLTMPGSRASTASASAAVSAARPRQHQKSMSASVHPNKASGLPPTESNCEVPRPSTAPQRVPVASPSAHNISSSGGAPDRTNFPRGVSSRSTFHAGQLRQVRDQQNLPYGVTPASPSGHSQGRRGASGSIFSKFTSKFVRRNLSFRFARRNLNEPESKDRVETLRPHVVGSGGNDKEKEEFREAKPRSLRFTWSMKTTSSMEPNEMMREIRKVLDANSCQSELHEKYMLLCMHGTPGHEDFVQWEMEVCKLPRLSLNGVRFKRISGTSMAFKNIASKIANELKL
Calcium/calmodulin-dependent protein kinase type II subunit gamma (Homo sapiens), sequence (Q13555 whole entry): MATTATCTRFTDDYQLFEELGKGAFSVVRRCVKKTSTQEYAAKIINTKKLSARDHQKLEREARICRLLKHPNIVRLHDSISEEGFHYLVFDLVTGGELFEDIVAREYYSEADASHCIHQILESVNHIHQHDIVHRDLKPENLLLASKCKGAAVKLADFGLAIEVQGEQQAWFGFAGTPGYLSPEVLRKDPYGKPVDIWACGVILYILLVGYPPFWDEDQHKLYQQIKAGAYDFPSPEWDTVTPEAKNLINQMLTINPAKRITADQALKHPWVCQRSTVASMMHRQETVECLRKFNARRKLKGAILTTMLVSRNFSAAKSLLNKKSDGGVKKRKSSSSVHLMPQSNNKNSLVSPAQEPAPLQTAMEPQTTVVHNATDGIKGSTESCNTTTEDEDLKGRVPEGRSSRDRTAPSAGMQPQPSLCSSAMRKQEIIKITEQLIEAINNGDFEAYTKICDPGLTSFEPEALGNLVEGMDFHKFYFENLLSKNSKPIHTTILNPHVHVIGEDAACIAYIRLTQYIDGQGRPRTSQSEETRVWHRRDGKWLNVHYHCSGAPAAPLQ

SMILES: Cc1ccc(-c2cnc([C@@]3(O)CC[C@H](C(=O)O)C(C)(C)C3)s2)cc1Nc1cccc(C(F)(F)F)n1 [MRL-SYKi-NC]
- residual activity [1]: 95.4%
- residual activity [2]: 87%
- residual activity [3]: 100%
- residual activity [4]: 100%
- residual activity [5]: 75.3%
- residual activity [6]: 89.6%
- residual activity [7]: 88.2%
- residual activity [8]: 100%
- residual activity [9]: 93.4%
- residual activity [10]: 100%
- residual activity [11]: 90.9%
- residual activity [12]: 100%
- residual activity [13]: 100%
- residual activity [14]: 99.3%
- residual activity [15]: 93.7%
- residual activity [16]: 100%
- residual activity [17]: 100%
- residual activity [18]: 94.1%
- residual activity [19]: 70.5%
- residual activity [20]: 100%
- residual activity [21]: 64.9%
- residual activity [22]: 100%
- residual activity [23]: 96%
- residual activity [24]: 100%
- residual activity [25]: 62.8%
- residual activity [26]: 100%
- residual activity [27]: 100%
- residual activity [28]: 100%
- residual activity [29]: 100%
- residual activity [30]: 97.3%
- residual activity [31]: 100%
- residual activity [32]: 81.2%
- residual activity [33]: 86.7%
- residual activity [34]: 20.2%
- residual activity [35]: 100%
- residual activity [36]: 82.6%
- residual activity [37]: 92.8%
- residual activity [38]: 89.7%
- residual activity [39]: 100%
- inhibition [40]: -4.56%
- inhibition [41]: -8.44%
- inhibition [42]: 7.9%
- inhibition [43]: 10.3%
- inhibition [44]: 1.6%
- inhibition [45]: -6.54%

SMILES: Cc1cc(Nc2nccc(C)n2)cc(-c2cnc([C@@]3(O)CC[C@H](C(=O)O)C(C)(C)C3)s2)c1 [MRL-SYKi]
- residual activity [1]: 53.9%
- residual activity [2]: 78.3%
- residual activity [3]: 100%
- residual activity [4]: 83.3%
- residual activity [5]: 99.3%
- residual activity [6]: 97.1%
- residual activity [7]: 95.2%
- residual activity [8]: 92.3%
- residual activity [9]: 100%
- residual activity [10]: 96.1%
- residual activity [11]: 100%
- residual activity [12]: 94.5%
- residual activity [13]: 100%
- residual activity [14]: 66.9%
- residual activity [15]: 99.8%
- residual activity [16]: 100%
- residual activity [17]: 89.6%
- residual activity [18]: 83.4%
- residual activity [19]: 96.3%
- residual activity [20]: 93.2%
- residual activity [21]: 92.3%
- residual activity [22]: 100%
- residual activity [23]: 100%
- residual activity [24]: 100%
- residual activity [25]: 95.3%
- residual activity [26]: 100%
- residual activity [27]: 81.5%
- residual activity [28]: 80.7%
- residual activity [29]: 100%
- residual activity [30]: 53.1%
- residual activity [31]: 100%
- residual activity [32]: 88.6%
- residual activity [33]: 100%
- residual activity [34]: 100%
- residual activity [35]: 96.1%
- residual activity [36]: 90.3%
- residual activity [37]: 91.9%
- residual activity [38]: 97.7%
- residual activity [39]: 100%
- inhibition [40]: 10%
- inhibition [41]: -5.53%
- inhibition [42]: 3.23%
- inhibition [43]: -9.08%
- inhibition [44]: 5.53%
- inhibition [45]: 3.43%
